Where two headings read alike, the source gives them in different places.
Assays:
[1] = system: human coronary artery smooth muscle cells (CASMC); assay: Vascular smooth muscle cell (SMC) antiproliferation assay; type: cell-based; settings: viable cell count (Trypan Blue exclusion) ~68 hours after compound addition
Procedure: Suppression of Proliferation of Human Coronary Artery Smooth Muscle Cells (CASMC)
Vascular Smooth Muscle Cell (SMC) Antiproliferation Assay
The cells used in this assay were human coronary artery smooth muscle cells (CASMC) supplied by Clonetics Corp. (San Diego, Calif.). They were maintained in SmGM-2 growth medium (Clonetics Corp.), which consisted of modified MCDB 131 medium supplemented with 5% (v/v) fetal bovine serum (FBS), 0.5 ng/mL human recombinant epidermal growth factor (EGF), 2 ng/mL human recombinant fibroblast growth factor (FGF), 5 μg/mL bovine insulin, 50 μg/mL gentamicin sulfate, and 50 ng/mL amphotericin B under humidified 95% air-5% CO2 at 37° C. Cells were used for experiments up to about 17 cumulative population doublings (i.e., passage 9); at this age they still stained positive for smooth muscle actin, a protein marker for smooth muscle cells.
For the SMC antiproliferation assay, the cells were seeded at 3×10^4 viable cells in 2 mL of SmGM-2 medium per well of a Corning 24 tissue culture well plate (Corning, N.Y.). Stock solutions of the test compounds were prepared just prior to addition to the cells by dissolving in DMSO at a concentration of 1000 times the highest concentration to be assayed. This stock solution was diluted, as required, with DMSO to lower concentrations. On the same day the cells were seeded, but after they had attached and spread out (about 3 hours), each test compound in varying concentrations (2 μL of the diluted stock solutions) was added to four replicate wells (n=4) for each concentration. Control cultures received 2 μL of DMSO per well (n=4). On the following morning, the cultures were examined microscopically and their condition recorded. On the third day after test compound addition (˜68 hours), the cultures were examined microscopically again and the viable cells counted with an hemacytometer following trypsinization with 0.25% trypsin-1 mM EDTA. Trypan Blue dye exclusion was used to discriminate between viable and dead cells. The results were usually presented as % of the control viable cell count (mean±SEM) and were used to determine the IC50 for the inhibition of proliferation of vascular smooth muscle cells.

[2] = n=4, read-out: IC 50 for the inhibition of proliferation of vascular smooth muscle cells, Non-nitrosated and/or Non-nitrosylated Compound
[3] = Homo sapiens, n=4, read-out: IC 50 for the inhibition of proliferation of vascular smooth muscle cells, Nitrosated and/or Nitrosylated Compound

| SMILES | IC50 [1, 2] [µM] | melting point [°C] | IC50 [1, 3] [µM] |
| --- | --- | --- | --- |
| C[C@]12CC[C@@H]3c4ccc(OCC(=O)OCCC5(S)C6CC7CC(C6)CC5C7)cc4CC[C@H]3[C@@H]1CC[C@@H]2O (stereo partly drawn) [Example 45, 2-(2-Sulfanyladamantan-2-yl)ethyl 2-((1S,11S,14S,15S,10R)-14-hydroxy-15-methyltetracyclo(8.7.0.0<2,7>0.0<11,15>)heptadeca-2,4,6-trien-5-yloxy)acetate] | 8 | 78 to 80 | – |
| CC(C)(CNC(=O)CO/N=C1\C[C@@H]2[C@H](CC[C@]3(C)[C@@H](O)CC[C@@H]23)c2ccc(O)cc21)SN=O [Example 41, 2-(((1S,11S,14S,15S,10R)-5,14-dihydroxy-15-methyltetracyclo(8.7.0.0<2,7>0.0<11,15>)heptadeca-2,4,6-trien-8-ylidene)azamethoxy)-N-(2-methyl-2-(nitrosothio)propyl)acetamide] | – | 145 to 150 | 10 |
| C[C@]12CC[C@@H]3c4ccc(O)cc4/C(=N/OCC(=O)OCCC4(S)C5CC6CC(C5)CC4C6)C[C@H]3[C@@H]1CC[C@@H]2O (stereo partly drawn) [Example 46, 2-(2-sulfanyladamantan-2-yl)ethyl 2-(((1S,11S,14S,15S,10R)-5,14-dihydroxy-15-methyltetracyclo(8.7.0.0<2,7>0.0<11,15>)heptadeca-2,4,6-trien-8-ylidene)azamethoxy)acetate] | 5 to 12 | 85 to 90 | – |
| C[C@]12CC[C@@H]3c4ccc(OC(=O)CCC(=O)O[C@H]5CO[C@H]6[C@@H]5OC[C@H]6O)cc4CC[C@H]3[C@@H]1CC[C@@H]2O [Example 58, (1S,11S,14S,15S,10R)-14-Hydroxy-15-Methyltetracyclo(8.7.0.0<2,7>0.0<11,15>)heptadeca-2,4,6-trien-5-yl(1S,2S,5R,6R)-6-hydroxy-4,8-dioxabicyclo(3.3.0)oct-2-yl butane-1,4-dioate] | 12 | 79 to 80 | – |
| C[C@]12CC[C@@H]3c4ccc(O)cc4/C(=N/OCC(=O)OCCC4(SN=O)C5CC6CC(C5)CC4C6)C[C@H]3[C@@H]1CC[C@@H]2O (stereo partly drawn) [Example 37, 2-(2-(Nitrosothio)adamantan-2-yl)ethyl 2-(((1S,11S,14S,15S,10R)-5,14-dihydroxy-15-methyltetracyclo(8.7.0.0<2,7>0.0<11,15>)heptadeca-2,4,6-trien-8-ylidene)azamethoxy)acetate] | – | 75 to 80 | 1.4 to 2 |
| CC(C)(S)CNC(=O)COc1ccc2c(c1)CC[C@@H]1[C@@H]2CC[C@]2(C)[C@@H](O)CC[C@@H]12 [Example 48, 2-((1S,11S,14S,15S,10R)-14-hydroxy-15-methyltetracyclo(8.7.0.0<2,7>0.0<11,15>)heptadeca-2,4,6-trien-5-yloxy)-N-(2-methyl-2-sulfanylpropyl)acetamide] | 11 | 50 to 52 | – |
| C[C@]12CC[C@@H]3c4ccc(OCC(=O)OCCC5(SN=O)C6CC7CC(C6)CC5C7)cc4CC[C@H]3[C@@H]1CC[C@@H]2O (stereo partly drawn) [Example 36b, 2-(2-(Nitrosothio)adamantan-2-yl)ethyl 2-((1S,11S,14S,15S,10R)-14-hydroxy-15-methyltetracyclo(8.7.0.0<2,7>0.0<11,15>)heptadeca-2,4,6-trien-5-yloxy)acetate] | – | 48 to 50 | 5 |
| CC(C)(S)CNC(=O)CO/N=C1\C[C@@H]2[C@H](CC[C@]3(C)[C@@H](O)CC[C@@H]23)c2ccc(O)cc21 [Example 47, 2-(((1S,11S,14S,15S,10R)-5,14-dihydroxy-15-methyltetracyclo(8.7.0.0<2,7>0.0<11,15>)heptadeca-2,4,6-trien-8-ylidene)azamethoxy)-N-(2-methyl-2-sulfanylpropyl)acetamide] | > 80 | 87 to 90 | – |
| C[C@]12CC[C@@H]3c4ccc(OC(=O)c5ccccc5)cc4CC[C@H]3[C@@H]1CC[C@@H]2OC(=O)CCC(=O)O[C@H]1CO[C@H]2[C@@H]1OC[C@H]2O [Example 57, (1S,11S,14S,15S,10R)-15-Methyl-5-phenylcarbonyloxytetracyclo(8.7.0.0<2,7>0.0<11,15>)heptadeca-2,4,6-trien-14-yl(1S,2S,5R,6R)-6-hydroxy-4,8-dioxabicyclo(3.3.0)oct-2-yl butane-1,4-dioate] | > 80 | 136 to 137 | – |
| COc1ccc(C=C2c3ccccc3C(=NOCC(=O)NCC(C)(C)SN=O)c3ccccc32)cc1O [Example 51, 2-((10-((3-Hydroxy-4-methoxyphenyl)methylene)(9-anthrylidene))-azamethoxy)-N-(2-methyl-2-(nitrosothio)propyl)acetamide] | – | 143 to 145 | 10 |
